Experimental data: PubChem BioAssay AID2060498 (Molecular Pharmacology Branch, DTP, NCI, 2025)
pIC50: −log10 of the molar value.

Tested on: 171881-019-R-J1-PDC tumor spheroids, viability
Test: Anticancer human tumor 171881-019-R-J1-PDC patient-derived invasive breast carcinoma cell line growth inhibition [GQUAD]
Conditions: spheroids with HUVEC and MSC; for pIC50: curve of first compound; for viability, T/C: stronger effect = lower value
Source text: DNA G-quadruplex Stabilizer Agents in Combinations in Complex Spheroids
A high-throughput screen of multi-cell type tumor spheroids was designed to identify active combinations of DNA G-quadruplex stabilizer agents and targeted small molecules. Complex spheroids include a stromal component modeled by human endothelial cells (HUVEC) and fibroblasts modeled by human mesenchymal stem cells (MSCs). The concentration ranges selected for each drug and investigational agent were based upon clinically achievable concentrations if the clinical Cmax of the agent was known.
Compounds. The drugs and investigational agents: pidnarulex (CX-5461; NSC782164), APTO-253 (NSC789042), BRACO-19 (NSC847499), peposertib (NSC802822), ceralasertib (NSC780249), elimusertib (NSC800525), camonsertib (NSC841442), AZD-1390 (NSC803789), olaparib (NSC753686), talazoparib (NSC767125), ART-558 (NSC835418), sotorasib (NSC818433), MRTX-1133 (NSC836407), SN-38 (NSC673596), topotecan (NSC609699), etoposide (NSC141540), doxorubicin (NSC123127), gemcitabine (NSC613327), 5-fluorouracil (NSC19893), paclitaxel (NSC125973), vemurafenib (NSC761431), panobinostat (NSC761190), R-306465 (JNJ-16241199; NSC773264), adavosertib (NSC754352), TP-3654 (NSC805149), carboplatin (NSC241240), KSQ-4279 (NSC840948), and staurosporine (NSC755774) were obtained from the National Cancer Institute (NCI) Developmental Therapeutics Program Chemical Repository (34). The FDA-approved anticancer drug set is available from the NCI Developmental Therapeutics Program. […] The stock solutions were prepared in dimethyl sulfoxide (DMSO, Sigma-Aldrich, St. Louis, MO, cat. D2650) at 800-fold the tested concentration and stored at -70 degrees C prior to their use. All drugs and investigational agents were tested over a range starting from a high concentration at or near the clinical Cmax and decreasing in half-log increments. If the clinical Cmax for an agent had not been determined, the highest concentration tested was 10 microM.
2.3 Cell Culture. All cells were maintained in an incubator at 37 degrees C and 5% CO2 with 95% humidity. The PDC lines were cultured according to standard operating procedures established by the NCI PDMR. All PDCs were thawed and cultured in Matrigel-coated flasks prepared with a working solution of 1X Ham's F-12 nutrient mix, without supplementation (Invitrogen, cat. 11765054), 100 U/mL penicillin-streptomycin (Invitrogen, cat. 15140122), and 2.5% Matrigel (Corning Inc., cat. 354248) for the first three passages. The 857933-349-R-J2-PDC line was cultured in 6C/Colon 1B media, which includes advanced DMEM/F-12 (Thermo Fisher Scientific, cat. 12634028), 10 mM HEPES (Thermo Fisher Scientific, cat. 15630080), 1X GlutaMAX supplement (Thermo Fisher Scientific, cat. 35050061), 0.1 mg/mL primocin (InvivoGen, cat. ant-pm-2), 10% defined fetal bovine serum, heat inactivated (HyClone Laboratories Inc., cat. SH30070.03HI), 50% L-WRN conditioned media (ATCC, cat. CRL-3276), 1.25 mM N-Acetyl-L-cysteine (Sigma-Aldrich, cat. A9165), 10 mM nicotinamide (Sigma-Aldrich, cat. N0636), 1X B-27 supplement (Thermo Fisher Scientific, cat. 17504044), 1X N-2 supplement (Thermo Fisher Scientific, cat. 17502048), 10 microM Y-27632 dihydrochloride (Tocris Bioscience, cat. 1254), and 50 ng/mL human EGF recombinant protein (Thermo Fisher Scientific, cat. PHG0311). The 485176-168-R4-J1-PDC line was cultured in Panc media, which includes all 6C/Colon 1B media components plus 100 ng/mL human FGF-10 (Thermo Fisher Scientific, cat. 100-26), 500 nM SB-431542 (Selleckchem, cat. S1067), and gastrin (Tocris, cat. 3006).
[…]
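Further: spheroids exposed to compounds for 7 days.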
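Wherever viability, T/C is given: 100% = DMSO vehicle control viability.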

Work on `Cn1ncnc1[C@H]1c2n[nH]c(=O)c3cc(F)cc(c23)N[C@@H]1c1ccc(F)cc1` + CN(C)c1ccc(Nc2c3ccc(NC(=O)CCN4CCCC4)cc3nc3cc(NC(=O)CCN4CCCC4)ccc23)cc1 yielded a pIC50 (second compound 0.0316 µM) of under 6.50, a pIC50 (second compound 0.1 µM) of under 6.50 and a pIC50 (second compound 0.316 µM) of under 6.50. It also gave a pIC50 (second compound 1 µM) of over 9.00, a pIC50 (second compound 3.16 µM) of over 9.00 and a pIC50 (second compound 10 µM) of over 9.00. The viability, T/C (second compound 0.0316 µM, first compound 0.000999 µM) was 95.8%, the viability, T/C (second compound 0.0316 µM, first compound 0.00316 µM) was 98% and the viability, T/C (second compound 0.0316 µM, first compound 0.00999 µM) was 91.5%. It also gave a viability, T/C (second compound 0.0316 µM, first compound 0.0316 µM) of 102%, a viability, T/C (second compound 0.0316 µM, first compound 0.0999 µM) of 88.9% and a viability, T/C (second compound 0.0316 µM, first compound 0.316 µM) of 96.1%. For the same compound, the viability, T/C (second compound 0.1 µM, first compound 0.000999 µM) was 105%, the viability, T/C (second compound 0.1 µM, first compound 0.00316 µM) was 97.8% and the viability, T/C (second compound 0.1 µM, first compound 0.00999 µM) was 98.8%. The viability, T/C (second compound 0.1 µM, first compound 0.0316 µM) was 100%, the viability, T/C (second compound 0.1 µM, first compound 0.0999 µM) was 72.9% and the viability, T/C (second compound 0.1 µM, first compound 0.316 µM) was 87.6%. It also gave a viability, T/C (second compound 0.316 µM, first compound 0.000999 µM) of 87.7%, a viability, T/C (second compound 0.316 µM, first compound 0.00316 µM) of 84.6% and a viability, T/C (second compound 0.316 µM, first compound 0.00999 µM) of 89%. It also gave a viability, T/C (second compound 0.316 µM, first compound 0.0316 µM) of 68.2%, a viability, T/C (second compound 0.316 µM, first compound 0.0999 µM) of 79.3% and a viability, T/C (second compound 0.316 µM, first compound 0.316 µM) of 77%. The viability, T/C (second compound 1 µM, first compound 0.000999 µM) was 35.8%, the viability, T/C (second compound 1 µM, first compound 0.00316 µM) was 24.4% and the viability, T/C (second compound 1 µM, first compound 0.00999 µM) was 34.5%. It also gave a viability, T/C (second compound 1 µM, first compound 0.0316 µM) of 16.9%, a viability, T/C (second compound 1 µM, first compound 0.0999 µM) of 22% and a viability, T/C (second compound 1 µM, first compound 0.316 µM) of 19.1%. It also gave a viability, T/C (second compound 3.16 µM, first compound 0.000999 µM) of 2.45%, a viability, T/C (second compound 3.16 µM, first compound 0.00316 µM) of 2.11% and a viability, T/C (second compound 3.16 µM, first compound 0.00999 µM) of 1.92%. The viability, T/C (second compound 3.16 µM, first compound 0.0316 µM) was 1.34%, the viability, T/C (second compound 3.16 µM, first compound 0.0999 µM) was 1.64% and the viability, T/C (second compound 3.16 µM, first compound 0.316 µM) was 2.41%. For the same compound, the viability, T/C (second compound 10 µM, first compound 0.000999 µM) was 0.29%, the viability, T/C (second compound 10 µM, first compound 0.00316 µM) was 0.56% and the viability, T/C (second compound 10 µM, first compound 0.00999 µM) was 0.56%. For the same compound, the viability, T/C (second compound 10 µM, first compound 0.0316 µM) was 0.4%, the viability, T/C (second compound 10 µM, first compound 0.0999 µM) was 0.71% and the viability, T/C (second compound 10 µM, first compound 0.316 µM) was 1.05%.
